Results reported in publication PMC11374673, “Discovery of isoquinoline sulfonamides as allosteric gyrase inhibitors with activity against fluoroquinolone-resistant bacteria” (Nature Chemistry, 2024).
In brackets after ≈: the same amount, converted by molar mass. Read-outs that look alike come from different tables or passages of the source. Values belong to the compound of their own block, whether it stands above or below them.

Legend:
E. coli W3110 = experiment: MIC by broth microdilution; format: cell-based, Escherichia coli
Experimental: (§1) MIC was determined by broth microdilution. Single-colony cultures were grown to exponential phase (OD600 of 0.5) aerobically at 37 °C. In case of strains from the Keio collection, 50 µg ml^−1 kanamycin was supplemented to the media to ascertain a homogeneous population. The bacterial suspensions were diluted 100-fold in CAMHB and 50 µl was added to a twofold serial dilution series of test compounds (50 µl per well) in polypropylene 96-well microtitre plates to reach a volume of 100 µl. The plates were sealed with breathable membranes and incubated overnight at 37 °C with constant shaking (600 r.p.m.).

K. pneumoniae ATCC 29665 = experiment: MIC by broth microdilution; format: cell-based, Klebsiella pneumoniae; conditions: read-out: MIC K. pneumoniae ATCC 29665
Experimental: as §1

E. coli BW25113 = experiment: Bacterial cytological profiling (BCP); format: cell-based, Escherichia coli; conditions: BCP
Experimental: Overnight E. coli BW25113 cultures were diluted 1:100 in fresh LB medium in a 100 ml Erlenmeyer flask and incubated at 120 r.p.m. and 37 °C. When OD600 >0.2, the cultures were diluted to OD600 of 0.1 in fresh LB medium with a final volume of 200 µl in a 2 ml Eppendorf tube. The appropriate antibiotic or control treatment was applied and the samples were incubated at 200 r.p.m. and 30 °C for 2 h. Subsequently, 4,6-diamidino-2-phenylindole (DAPI) (2 µg ml^−1), FM4-64 (2 µg ml^−1) and SYTOX Green (0.5 µM) were added to reach the desired concentration and the samples were incubated a further 10 min. The samples were then centrifuged at 3,300g for 50 s and the pellets resuspended in half the original volume. From this suspension, 5 µl was spotted onto a 2.0% agarose pad for microscopy.
Microscopy was performed on a Zeiss Axio Observer Z1/7 inverted microscope.
For the qualitative assessment of the bacterial morphology, the acquired images were first pre-processed in ImageJ (v1.53m)[47]. Thereafter the brightness and contrast were adjusted to allow the clearest visual inspection of the particular phenotype. For the quantitative BCP, DIC images were first pre-processed and then a random forest classifier was trained with Illastik (v1.3.3)[48] to generate a segmented image. These binary masks were then combined together with the original DIC image and processed with the ImageJ plugin MicrobeJ (v 5.13l)[49]. MicrobeJ generated cell outlines and performed measurements on cell shape accordingly. The recorded cell outlines produced by MicrobeJ were exported and used as a guide to characterize the DNA shape within each bacterium using a custom-made ImageJ macro (Appendix II). DAPI and SYTOX Green intensity were measured on raw images in a similar manner. Then, by hand, polygons were drawn that excluded bacteria to determine background intensity. After background correction the intensity was standardized to the DMSO control within the same biological replicate. For PCA, the BCP assay was executed for three independently biological replicates. During each experiment, images were acquired until 24 or more bacteria in total had been observed. Following feature extraction for each replicate, principal component analysis was performed using GraphPad Prism (v9.0.0) using multiple variable analysis with standardized data. Principal components (PCs) were selected based on the per cent of total explained variance (minimum 80%).

[1] = Escherichia coli, W3110, WT, broth microdilution, read-out: MIC E. coli W3110
[2] = Klebsiella pneumoniae, ATCC29665, broth microdilution
[3] = WT, broth microdilution, read-out: MIC E. coli W3110
[4] = Escherichia coli, W3110, follow-up of the 12 library hits, read-out: MIC E. coli

Structure (SMILES): O=S(=O)(NCCNCc1ccc(-c2ccccc2Cl)cc1)c1cccc2cnccc12 [Compound 70]
MIC (E. coli W3110; [1]): 25 µM (≈ 11.3 µg/mL) | MIC (K. pneumoniae ATCC 29665; [2]): 50 µM (≈ 22.6 µg/mL)

Structure (SMILES): Cc1ccccc1-c1ccc(CNCCNS(=O)(=O)c2cccc3cnccc23)cc1 [Compound 71]
MIC (E. coli W3110; [1]): 12.5 µM (≈ 5.39 µg/mL) | MIC (K. pneumoniae ATCC 29665; [2]): 50 µM (≈ 21.6 µg/mL)

Structure (SMILES): N#Cc1ccccc1-c1ccc(CNCCNS(=O)(=O)c2cccc3cnccc23)cc1 [Compound 72]
MIC (E. coli W3110; [1]): 25 µM (≈ 11.1 µg/mL) | MIC (K. pneumoniae ATCC 29665; [2]): 50 µM (≈ 22.1 µg/mL)

Structure (SMILES): COc1ccccc1-c1ccc(CNCCNS(=O)(=O)c2cccc3cnccc23)cc1 [Compound 73]
MIC (E. coli W3110; [1]): 25 µM (≈ 11.2 µg/mL) | MIC (K. pneumoniae ATCC 29665; [2]): 50 µM (≈ 22.4 µg/mL)

Structure (SMILES): O=S(=O)(NCCNCc1ccc(-c2ccc(Cl)c(Cl)c2)cc1)c1cccc2cnccc12 [Compound 74]
MIC (E. coli W3110; [1]): 25 µM (≈ 12.2 µg/mL) | MIC (K. pneumoniae ATCC 29665; [2]): > 50 µM | MIC (K. pneumoniae ATCC 29665; broth microdilution): >50 µM

Structure (SMILES): O=S(=O)(NCCNCc1ccc(-c2cc(Cl)cc(Cl)c2)cc1)c1cccc2cnccc12 [Compound 75]
MIC (E. coli W3110; [1]): > 50 µM | MIC (E. coli W3110; [3]): >50 µM | MIC (K. pneumoniae ATCC 29665; [2]): > 50 µM | MIC (K. pneumoniae ATCC 29665; broth microdilution): >50 µM

Structure (SMILES): O=S(=O)(NCCNCc1ccc(-c2ccc3ccccc3c2)cc1)c1cccc2cnccc12 [Compound 76]
MIC (E. coli W3110; [1]): > 50 µM | MIC (E. coli W3110; [3]): >50 µM | MIC (K. pneumoniae ATCC 29665; [2]): > 50 µM | MIC (K. pneumoniae ATCC 29665; broth microdilution): >50 µM

Structure (SMILES): O=S(=O)(NCCNCc1ccc(-c2ccc3c(c2)OCO3)cc1)c1cccc2cnccc12 [Compound 77]
MIC (E. coli W3110; [1]): > 50 µM | MIC (E. coli W3110; [3]): >50 µM | MIC (K. pneumoniae ATCC 29665; [2]): > 50 µM | MIC (K. pneumoniae ATCC 29665; broth microdilution): >50 µM

Structure (SMILES): O=S(=O)(NCCNCc1ccc(-c2ccc3c(c2)OCCO3)cc1)c1cccc2cnccc12 [Compound 78]
MIC (E. coli W3110; [1]): > 50 µM | MIC (E. coli W3110; [3]): >50 µM | MIC (K. pneumoniae ATCC 29665; [2]): > 50 µM | MIC (K. pneumoniae ATCC 29665; broth microdilution): >50 µM

Structure (SMILES): CN(C)CCCN1c2ccccc2Sc2ccc(Cl)cc21 [MB053]
MIC (E. coli W3110; Escherichia coli, W3110, read-out: MIC E. coli): > 50 µM

Structure (SMILES): CO[C@H]1/C=C/O[C@@]2(C)Oc3c(C)c(O)c4c(O)c(c(/C=N/N5CCN(C)CC5)c(O)c4c3C2=O)NC(=O)/C(C)=C\C=C\[C@H](C)[C@H](O)[C@@H](C)[C@@H](O)[C@@H](C)[C@H](OC(C)=O)[C@@H]1C [RIF, rifampicin, reference compound]
DAPI circularity (E. coli BW25113): 0.637 ± 0.019 | DAPI nucleoid area (E. coli BW25113): 4.992 ± 0.606 | DAPI nucleoids (E. coli BW25113): 1.120 ± 0.069 | DAPI perimeter (E. coli BW25113): 9.927 ± 0.636 | DAPI roundness (E. coli BW25113): 0.408 ± 0.029 | DAPI solidity (E. coli BW25113): 0.918 ± 0.003 | DAPI total area (E. coli BW25113): 5.402 ± 0.548 | DIC area (E. coli BW25113): 5.883 ± 0.716 | DIC circularity (E. coli BW25113): 0.642 ± 0.053 | DIC curvature (E. coli BW25113): 0.092 ± 0.018 | DIC feret (E. coli BW25113): 4.608 ± 0.076 | DIC length (E. coli BW25113): 4.635 ± 0.073 | DIC roundness (E. coli BW25113): 0.370 ± 0.047 | DIC sinuosity (E. coli BW25113): 1.017 ± 0.003 | DIC solidity (E. coli BW25113): 0.956 ± 0.014 | DIC width (E. coli BW25113): 1.327 ± 0.161 | Decondensation (E. coli BW25113): 0.922 ± 0.075 | DIC angularity (E. coli BW25113; 2 h, AMP 12.5, RIF 12.5, TET 6.25, CIP 0.0625, LEI-801 6.25, LEI-800 6.25 µM, average ± SD of 3 replicates): 0.101 ± 0.016 | DAPI intensity (E. coli BW25113; standardized to DMSO control): 0.704 ± 0.260 | SYTOX Green intensity (E. coli BW25113; standardized to DMSO control): 2.120 ± 0.434

Continued, values first:

MIC (E. coli W3110; [4]): > 50 µM
Structure (SMILES): O=S(=O)(NCCNC/C=C/c1ccccc1-c1ccc2c(c1)OCO2)c1cccc2cnccc12 [Compound 97i]

MIC (E. coli W3110; [4]): 25 µM (≈ 8.64 µg/mL)
Structure (SMILES): Cc1ccc(S(=O)(=O)N[C@@H]2C(=O)c3cc(C)ccc3O[C@H]2C)cc1 [IMI1517570]

MIC (E. coli W3110; [4]): > 50 µM
Structure (SMILES): O=S(=O)(NCCNCCCc1ccc(-c2cccnc2)cc1)c1cccc2cnccc12 [SG145]

MIC (E. coli W3110; [4]): > 50 µM
Structure (SMILES): O=S(=O)(NCCNC/C=C/c1ccc(-c2cccnc2)cc1)c1ccc2[nH]ncc2c1 [SG170]

MIC (E. coli W3110; [4]): > 50 µM
Structure (SMILES): O=S(=O)(NCCNC/C=C/c1ccc(-c2cccnc2)cc1)c1ccc2cn[nH]c2c1 [SG171]

MIC (E. coli W3110; [4]): > 50 µM
Structure (SMILES): O=S(=O)(NCCNC/C=C/c1ccc(-c2cccnc2)cc1)c1cccc2[nH]ncc12 [SG176]

MIC (E. coli W3110; [4]): > 50 µM
Structure (SMILES): Nc1cc2c(S(=O)(=O)NCCNC/C=C/c3ccc(-c4cccnc4)cc3)cccc2cn1 [SG181]
